Measured values: paper PMC11285948, “The effects of CYP2B6 inactivators on the metabolism of ciprofol” (PLOS ONE, 2024)
“And” between values parts separate entries of the source, which are not always exact repeats. Identical values can stand only once.

Tests used:
[1] = test system: rat liver microsomes (RLMs); experiment: Ciprofol metabolism in RLM incubation system (incubation time, protein concentration, enzyme kinetics); assay type: in vitro ADME; conditions: for reduction of ciprofol ΔC (Enzymatic reaction kinetics): ΔC1-ΔC3 and Mean; for ciprofol concentration in incubation system (Incubation time) / ciprofol concentration in incubation system (Liver microsomal protein concentration): C1-C3 and Mean; for ciprofol concentration in incubation system (Liver microsomal protein concentration): RLMs, ciprofol 25 μg·mL^-1, 40 min
Procedure: (§1) The volume of the incubation system was 200 μL and included 2 μL of substrate (ciprofol), 8 μL of rat liver microsomes (RLMs) or 6 μL of human liver microsomes (HLMs), 12 μL of NADPH generation system of solution (solution A 10 μL, solution B 2 μL), and the remaining volume was PBS. The incubation was performed in a water bath at a constant temperature of 37°C, and each sample was incubated three times in parallel.
(§2) The incubation system was removed from the water bath, and the reaction was terminated immediately by adding 800 μL of reaction termination solution (acetonitrile solution containing 5 μg·mL^-1 D6-ciprofol at 4°C). The mixture was vortexed for 2 min and centrifuged for 15 min, after which the supernatant was transferred to an autosampler vial for HPLC-MS/MS detection.
(§3) The concentrations of ciprofol and liver microsomal proteins in the RLM incubation system were set at 25 μg·mL^-1 and 0.8 mg·mL^-1, respectively, whereas those in the HLM incubation system were set at 40 μg·mL^-1 and 0.6 mg·mL^-1, respectively. Samples were obtained and assayed after 0, 10, 20, 30, 40, 60, 80, 100 and 120 min of incubation, and the optimum incubation time was determined according to the decreasing trend in ciprofol concentration.
(§4) The ciprofol concentrations in the RLM and HLM incubation systems were set at 25 and 40 μg·mL^-1, respectively. The liver microsomal protein concentrations were 0, 0.1, 0.2, 0.4, 0.6, 0.8 and 1.0 mg·mL^-1. The optimal protein concentration in the incubation system was determined based on the reduction of ciprofol (ΔC) after 40 min of incubation in RLMs and 60 min in HLMs.
(§5) The liver microsomal protein concentrations in the RLM incubation system and the HLM incubation system were 0.8 mg·mL^-1 and 0.6 mg·mL^-1, and the cells were incubated for 40 min and 60 min, respectively. The ciprofol concentrations in the incubation system were set at 4, 8, 16, 32, 48 and 80 μg·mL^-1, and the kinetic parameters of ciprofol metabolism were investigated based on ΔC values at different initial ciprofol concentrations (C0).
(§6) The substrate elimination method was employed in this study, and GraphPad Prism 8.0.2 software was used for statistical processing, including determination of the kinetic parameters of ciprofol metabolism and the IC50 values of psoralen and clopidogrel for ciprofol metabolism. The maximum velocity (Vmax), Michaelis constant (Km) and intrinsic clearance (CLint) were calculated using the […]: V=Vmax×[S]/Km+[S] CLint=Vmax/Km

[2] = test system: human liver microsomes (HLMs); experiment: Ciprofol metabolism in HLM incubation system (incubation time, protein concentration, enzyme kinetics); assay type: in vitro ADME; conditions: for reduction of ciprofol ΔC (Enzymatic reaction kinetics): ΔC1-ΔC3 and Mean; for ciprofol concentration in incubation system (Incubation time) / ciprofol concentration in incubation system (Liver microsomal protein concentration): C1-C3 and Mean; for ciprofol concentration in incubation system (Liver microsomal protein concentration): ciprofol 40 μg·mL^-1, 60 min
Procedure: as §1, §2, §3, §4, §5, §6

[3] = clinical trials; cited from earlier work

CC(C)c1cccc([C@H](C)C2CC2)c1O [ciprofol]
Km of ciprofol metabolism ([1]; RLMs 0.8 mg·mL^-1, 40 min): 25.11 µg/mL | Vmax of ciprofol metabolism ([1]; RLMs 0.8 mg·mL^-1, 40 min): 14.06 ng·min^-1·mg protein^-1 | reduction of ciprofol ΔC (Enzymatic reaction kinetics) ([1]; RLMs 0.8 mg·mL^-1, 40 min, initial ciprofol C 4 μg/mL): 2.12 µg/mL and 1.71 µg/mL and 2.14 µg/mL and 1.99 µg/mL | reduction of ciprofol ΔC (Enzymatic reaction kinetics) ([1]; RLMs 0.8 mg·mL^-1, 40 min, initial ciprofol C 8 μg/mL): 3.40 µg/mL and 3.72 µg/mL and 3.90 µg/mL and 3.68 µg/mL | reduction of ciprofol ΔC (Enzymatic reaction kinetics) ([1]; RLMs 0.8 mg·mL^-1, 40 min, initial ciprofol C 16 μg/mL): 5.07 µg/mL and 6.04 µg/mL and 4.94 µg/mL and 5.35 µg/mL | reduction of ciprofol ΔC (Enzymatic reaction kinetics) ([1]; RLMs 0.8 mg·mL^-1, 40 min, initial ciprofol C 32 μg/mL): 7.10 µg/mL and 8.64 µg/mL and 7.63 µg/mL and 7.79 µg/mL | reduction of ciprofol ΔC (Enzymatic reaction kinetics) ([1]; RLMs 0.8 mg·mL^-1, 40 min, initial ciprofol C 48 μg/mL): 9.57 µg/mL and 8.62 µg/mL and 8.97 µg/mL and 9.05 µg/mL | reduction of ciprofol ΔC (Enzymatic reaction kinetics) ([1]; RLMs 0.8 mg·mL^-1, 40 min, initial ciprofol C 80 μg/mL): 10.20 µg/mL and 11.72 µg/mL and 10.73 µg/mL and 10.88 µg/mL | ciprofol concentration in incubation system (Incubation time) ([1]; RLMs 0.8 mg·mL^-1, ciprofol 25 μg·mL^-1, T 0 min): 25.04 µg/mL and 26.05 µg/mL and 27.04 µg/mL and 26.04 µg/mL | ciprofol concentration in incubation system (Incubation time) ([1]; RLMs 0.8 mg·mL^-1, ciprofol 25 μg·mL^-1, T 10 min): 21.96 µg/mL and 25.48 µg/mL and 25.19 µg/mL and 24.21 µg/mL | ciprofol concentration in incubation system (Incubation time) ([1]; RLMs 0.8 mg·mL^-1, ciprofol 25 μg·mL^-1, T 20 min): 20.63 µg/mL and 19.64 µg/mL and 23.74 µg/mL and 21.34 µg/mL | ciprofol concentration in incubation system (Incubation time) ([1]; RLMs 0.8 mg·mL^-1, ciprofol 25 μg·mL^-1, T 30 min): 17.46 µg/mL and 18.48 µg/mL and 22.67 µg/mL and 19.53 µg/mL | ciprofol concentration in incubation system (Incubation time) ([1]; RLMs 0.8 mg·mL^-1, ciprofol 25 μg·mL^-1, T 40 min): 16.32 µg/mL and 16.15 µg/mL and 19.54 µg/mL and 17.34 µg/mL | ciprofol concentration in incubation system (Incubation time) ([1]; RLMs 0.8 mg·mL^-1, ciprofol 25 μg·mL^-1, T 60 min): 15.01 µg/mL and 16.57 µg/mL and 18.99 µg/mL and 16.86 µg/mL | ciprofol concentration in incubation system (Incubation time) ([1]; RLMs 0.8 mg·mL^-1, ciprofol 25 μg·mL^-1, T 80 min): 13.80 µg/mL and 14.14 µg/mL and 18.20 µg/mL and 15.38 µg/mL | ciprofol concentration in incubation system (Incubation time) ([1]; RLMs 0.8 mg·mL^-1, ciprofol 25 μg·mL^-1, T 100 min): 12.48 µg/mL and 12.69 µg/mL and 17.81 µg/mL and 14.32 µg/mL | ciprofol concentration in incubation system (Incubation time) ([1]; RLMs 0.8 mg·mL^-1, ciprofol 25 μg·mL^-1, T 120 min): 11.61 µg/mL and 11.81 µg/mL and 16.86 µg/mL and 13.43 µg/mL | ciprofol concentration in incubation system (Liver microsomal protein concentration) ([1]; Cprotein 0 mg/mL): 24.55 µg/mL and 25.68 µg/mL and 26.29 µg/mL and 25.50 µg/mL | ciprofol concentration in incubation system (Liver microsomal protein concentration) ([1]; Cprotein 0.1 mg/mL): 23.43 µg/mL and 22.66 µg/mL and 24.40 µg/mL and 23.50 µg/mL | ciprofol concentration in incubation system (Liver microsomal protein concentration) ([1]; Cprotein 0.2 mg/mL): 21.66 µg/mL and 22.34 µg/mL and 19.74 µg/mL and 21.25 µg/mL | ciprofol concentration in incubation system (Liver microsomal protein concentration) ([1]; Cprotein 0.4 mg/mL): 19.22 µg/mL and 19.23 µg/mL and 17.57 µg/mL and 18.67 µg/mL | ciprofol concentration in incubation system (Liver microsomal protein concentration) ([1]; Cprotein 0.6 mg/mL): 19.49 µg/mL and 17.16 µg/mL and 15.28 µg/mL and 17.31 µg/mL | ciprofol concentration in incubation system (Liver microsomal protein concentration) ([1]; Cprotein 0.8 mg/mL): 18.46 µg/mL and 15.72 µg/mL and 14.74 µg/mL and 16.31 µg/mL | ciprofol concentration in incubation system (Liver microsomal protein concentration) ([1]; Cprotein 1 mg/mL): 17.05 µg/mL and 19.78 µg/mL and 13.60 µg/mL and 16.81 µg/mL | Km of ciprofol metabolism ([2]; HLMs 0.6 mg·mL^-1, 60 min): 40.07 µg/mL | Vmax of ciprofol metabolism ([2]; HLMs 0.6 mg·mL^-1, 60 min): 42.39 ng·min^-1·mg protein^-1 | reduction of ciprofol ΔC (Enzymatic reaction kinetics) ([2]; HLMs 0.6 mg·mL^-1, 60 min, initial ciprofol C 4 μg/mL): 3.114 µg/mL and 3.093 µg/mL and 3.175 µg/mL and 3.13 µg/mL | reduction of ciprofol ΔC (Enzymatic reaction kinetics) ([2]; HLMs 0.6 mg·mL^-1, 60 min, initial ciprofol C 8 μg/mL): 6.89 µg/mL and 6.98 µg/mL and 7.022 µg/mL and 6.96 µg/mL | reduction of ciprofol ΔC (Enzymatic reaction kinetics) ([2]; HLMs 0.6 mg·mL^-1, 60 min, initial ciprofol C 16 μg/mL): 12.73 µg/mL and 12.88 µg/mL and 12.21 µg/mL and 12.61 µg/mL | reduction of ciprofol ΔC (Enzymatic reaction kinetics) ([2]; HLMs 0.6 mg·mL^-1, 60 min, initial ciprofol C 32 μg/mL): 17.77 µg/mL and 19.4 µg/mL and 16.95 µg/mL and 18.04 µg/mL | reduction of ciprofol ΔC (Enzymatic reaction kinetics) ([2]; HLMs 0.6 mg·mL^-1, 60 min, initial ciprofol C 48 μg/mL): 23.33 µg/mL and 25.1 µg/mL and 23.91 µg/mL and 24.11 µg/mL | reduction of ciprofol ΔC (Enzymatic reaction kinetics) ([2]; HLMs 0.6 mg·mL^-1, 60 min, initial ciprofol C 80 μg/mL): 28.42 µg/mL and 27.74 µg/mL and 27.36 µg/mL and 27.84 µg/mL | ciprofol concentration in incubation system (Incubation time) ([2]; HLMs 0.6 mg·mL^-1, ciprofol 40 μg·mL^-1, T 0 min): 37.89 µg/mL and 38.98 µg/mL and 40.56 µg/mL and 39.14 µg/mL | ciprofol concentration in incubation system (Incubation time) ([2]; HLMs 0.6 mg·mL^-1, ciprofol 40 μg·mL^-1, T 10 min): 36.11 µg/mL and 34.79 µg/mL and 36.39 µg/mL and 35.76 µg/mL | ciprofol concentration in incubation system (Incubation time) ([2]; HLMs 0.6 mg·mL^-1, ciprofol 40 μg·mL^-1, T 20 min): 31.73 µg/mL and 29.56 µg/mL and 32.69 µg/mL and 31.33 µg/mL | ciprofol concentration in incubation system (Incubation time) ([2]; HLMs 0.6 mg·mL^-1, ciprofol 40 μg·mL^-1, T 30 min): 28.14 µg/mL and 24.88 µg/mL and 28.27 µg/mL and 27.10 µg/mL | ciprofol concentration in incubation system (Incubation time) ([2]; HLMs 0.6 mg·mL^-1, ciprofol 40 μg·mL^-1, T 40 min): 26.01 µg/mL and 21.75 µg/mL and 25.61 µg/mL and 24.46 µg/mL | ciprofol concentration in incubation system (Incubation time) ([2]; HLMs 0.6 mg·mL^-1, ciprofol 40 μg·mL^-1, T 60 min): 21.50 µg/mL and 18.33 µg/mL and 20.08 µg/mL and 19.97 µg/mL | ciprofol concentration in incubation system (Incubation time) ([2]; HLMs 0.6 mg·mL^-1, ciprofol 40 μg·mL^-1, T 80 min): 19.59 µg/mL and 17.50 µg/mL and 18.53 µg/mL and 18.54 µg/mL | ciprofol concentration in incubation system (Incubation time) ([2]; HLMs 0.6 mg·mL^-1, ciprofol 40 μg·mL^-1, T 100 min): 18.42 µg/mL and 15.96 µg/mL and 17.83 µg/mL and 17.40 µg/mL | ciprofol concentration in incubation system (Incubation time) ([2]; HLMs 0.6 mg·mL^-1, ciprofol 40 μg·mL^-1, T 120 min): 17.25 µg/mL and 14.82 µg/mL and 15.95 µg/mL and 16.01 µg/mL | ciprofol concentration in incubation system (Liver microsomal protein concentration) ([2]; HLMs, Cprotein 0 mg/mL): 39.87 µg/mL and 40.23 µg/mL and 38.51 µg/mL and 39.54 µg/mL | ciprofol concentration in incubation system (Liver microsomal protein concentration) ([2]; HLMs, Cprotein 0.1 mg/mL): 35.11 µg/mL and 36.09 µg/mL and 35.34 µg/mL and 35.51 µg/mL | ciprofol concentration in incubation system (Liver microsomal protein concentration) ([2]; HLMs, Cprotein 0.2 mg/mL): 30.78 µg/mL and 30.52 µg/mL and 29.4 µg/mL and 30.23 µg/mL | ciprofol concentration in incubation system (Liver microsomal protein concentration) ([2]; HLMs, Cprotein 0.4 mg/mL): 24.5 µg/mL and 24.31 µg/mL and 22.53 µg/mL and 23.78 µg/mL | ciprofol concentration in incubation system (Liver microsomal protein concentration) ([2]; HLMs, Cprotein 0.6 mg/mL): 20.49 µg/mL and 20.86 µg/mL and 19.64 µg/mL and 20.33 µg/mL | ciprofol concentration in incubation system (Liver microsomal protein concentration) ([2]; HLMs, Cprotein 0.8 mg/mL): 19.89 µg/mL and 20.13 µg/mL and 19.02 µg/mL and 19.68 µg/mL | ciprofol concentration in incubation system (Liver microsomal protein concentration) ([2]; HLMs, Cprotein 1 mg/mL): 19.11 µg/mL and 19.68 µg/mL and 20.54 µg/mL and 19.78 µg/mL | CLint of ciprofol ([2]; HLMs, CLint=Vmax/Km): 1.06 mL·min^-1·mg protein^-1 | incidence of pain on injection relative to that caused by propofol [3]: 1/10
